Literature values as cited in patent US20230074252A1, “DOSAGES AND METHODS FOR TREATING PULMONARY ARTERIAL HYPERTENSION WITH RODATRISTAT” (Altavant Sciences GmbH, priority 2020, published 2023).

Assays:
CYP2C8 = target: T1, CYP2C8 (Homo sapiens, UniProt P10632); conditions: literature; cited from earlier work
T1 sequence (P10632 1-490): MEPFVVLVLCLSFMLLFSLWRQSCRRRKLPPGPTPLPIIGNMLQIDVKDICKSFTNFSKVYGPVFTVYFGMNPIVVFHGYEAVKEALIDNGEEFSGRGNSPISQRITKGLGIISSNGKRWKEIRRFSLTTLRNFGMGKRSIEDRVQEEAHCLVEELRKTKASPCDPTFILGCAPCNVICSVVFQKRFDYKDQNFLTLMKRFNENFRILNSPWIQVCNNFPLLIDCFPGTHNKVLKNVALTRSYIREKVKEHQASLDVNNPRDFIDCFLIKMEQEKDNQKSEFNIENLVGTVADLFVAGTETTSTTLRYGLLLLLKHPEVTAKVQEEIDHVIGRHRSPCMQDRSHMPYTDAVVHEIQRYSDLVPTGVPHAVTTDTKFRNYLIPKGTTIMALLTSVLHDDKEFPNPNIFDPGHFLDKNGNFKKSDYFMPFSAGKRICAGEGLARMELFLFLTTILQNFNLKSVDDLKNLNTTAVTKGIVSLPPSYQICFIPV

[1] = cited from earlier work; for Change in exposure on coadministration with clopidogrel: selexipag + clopidogrel (moderate inhibitor); for Increase in exposure (AUC) on coadministration with gemfibrozil: selexipag + gemfibrozil (strong CYP2C8 inhibitor); for Increase in exposure on coadministration with ritonavir: selexipag + ritonavir
[2] = oral; cited from earlier work
[3] = human, in vivo; cited from earlier work
prostacyclin receptor = prostacyclin receptor (Homo sapiens, UniProt P43119); conditions: cited from earlier work
prostacyclin receptor, sequence (P43119 whole entry, species assumed): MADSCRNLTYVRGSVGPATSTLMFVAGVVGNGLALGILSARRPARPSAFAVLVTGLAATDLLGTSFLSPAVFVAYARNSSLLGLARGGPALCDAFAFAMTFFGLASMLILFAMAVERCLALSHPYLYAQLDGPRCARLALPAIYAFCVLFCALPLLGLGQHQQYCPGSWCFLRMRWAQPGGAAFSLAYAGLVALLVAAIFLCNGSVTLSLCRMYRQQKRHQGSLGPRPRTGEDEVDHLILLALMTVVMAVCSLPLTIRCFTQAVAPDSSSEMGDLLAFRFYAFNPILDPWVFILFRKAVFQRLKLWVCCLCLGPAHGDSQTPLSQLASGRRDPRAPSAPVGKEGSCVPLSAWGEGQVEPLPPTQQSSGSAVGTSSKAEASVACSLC

Compound | Change in exposure on coadministration with clopidogrel [1] | Increase in exposure (AUC) on coadministration with gemfibrozil [1] | Increase in exposure on coadministration with ritonavir [1] | other results
O=C1Nc2ccc(Cl)cc2[C@@](C#CC2CC2)(C(F)(F)F)O1 [efavirenz] | – | – | – | IC50 (CYP2C8): 4.8 µM
CC(C)N(CCCCOCC(=O)NS(C)(=O)=O)c1cnc(-c2ccccc2)c(-c2ccccc2)n1 [selexipag] | did not impact | 2 fold | ~2 fold | –
CCCCC[C@H](O)CC[C@@H]1[C@H]2Cc3cccc(OCC(=O)O)c3C[C@H]2C[C@H]1O.[Na+] [treprostinil, (1R,2R,3aS,9aS)-[[2,3,3a,4,9,9a-Hexahydro-2-hydroxy-1-[(3S)-3-hydroxyoctyl]-1Hbenz[f]inden-5-yl]oxy]acetic acid monosodium salt] | – | – | – | Bioavailability [2]: ~17%; Increase in AUC on coadministration with gemfibrozil [3]: ~2 fold; Increase in Cmax on coadministration with gemfibrozil [3]: ~2 fold
CC(C)N(CCCCOCC(=O)O)c1cnc(-c2ccccc2)c(-c2ccccc2)n1 [ACT-333679] | 2.7 fold | 11 fold | < 2 fold | Potency relative to selexipag (prostacyclin receptor): approximately 37 fold
